The values that follow come from patent US8013006B2.

Some results are limits rather than exact numbers.

For the first experiment, the system named is HCV replicon. The experiment is described as follows: microbe, parasite or virus in culture. In kind it is cell-based. As to conditions: Hepatitis C virus, 48 h, read-out: Replicon IC5Os μM. On the technique in general: A replicon is a self-replicating genome or part of one, used to study replication in cells.
On to `CC(=O)OCc1c(OC(C)=O)ccc2c([N+](=O)[O-])c(C)n(-c3ccc(C)cc3)c12` [Compound 1], for which the IC50 was more than 2 µM.

The experiment is the same for the next values; noted with them: Replicon IC50 values are determined by firefly luciferase signal; bicistronic replicon, 2 days; read-out: Replicon IC5Os.
Consider `COc1ccc(-n2c(C)c([N+](=O)[O-])c3cc(CN(C)C)c(O)cc32)cc1` [Compound 3], for which the IC50 is more than 2 µM.

For the compound `CC(C)n1cc(C#N)c2ccc(O)cc21` [Compound 6], the IC50 was more than 2 µM.

As to `COc1ccc2c(C#N)cn(-c3ccc(C)c(C)c3)c2c1` [Compound 8], the IC50 is 0.5 to 2 µM.

As to `CCCCOc1ccc2c(C#N)cn(CC)c2c1` [Compound 11], the IC50 is more than 2 µM.

For `CCn1cc(C#N)c2ccc(OCc3ccccc3)cc21` [Compound 12], the IC50 was 0.5 to 2 µM.

As to `CCOC(=O)c1cn(CC)c2cc(OC)ccc12` [Compound 17], the IC50 was more than 2 µM.

For the compound `CCn1cc(C#N)c2ccc(OC(F)F)cc21` [Compound 18], the IC50 is more than 2 µM.

For the compound `CCn1c(-c2ccoc2)c(C#N)c2ccc(OC)cc21` [Compound 20], the IC50 is more than 2 µM.

`CCn1c(-c2ccccc2)c(C#N)c2ccc(OC)cc21` [Compound 21]: the IC50 was more than 2 µM.

Take `CCn1cc(C#N)c2ccc(-n3cccc3)cc21` [Compound 27]: the IC50 is 0.5 to 2 µM.

For `CCn1cc(-c2noc(C3CC3)n2)c2ccc(OC)cc21` [Compound 29], the IC50 is more than 2 µM.

For `CCNc1c(C(=O)OC)c2ccc([N+](=O)O)cc2n1CC` [Compound 30], the IC50 is more than 2 µM.

Turning to `CCn1cc(C(=O)c2ccccc2)c2cc(OC)ccc21` [Compound 32], the IC50 was more than 2 µM.

As for `CCn1cc(C(=O)c2ccccc2)c2ccc(OC)cc21` [Compound 33], the IC50 was more than 2 µM.

Turning to `CCC(=O)c1cn(CC)c2cc(OC)ccc12` [Compound 34], the IC50 is more than 2 µM.

Take `CCn1cc(C(=O)C(C)C)c2ccc(OC)cc21` [Compound 37]: the IC50 is more than 2 µM.

For the compound `CCn1cc(C(=O)c2cccc(OC)c2)c2ccc(OC)cc21` [Compound 38], the IC50 is more than 2 µM.

For the compound `CCn1cc(C(=O)c2cccc(OC)c2)c2cc(OC)ccc21` [Compound 39], the IC50 is more than 2 µM.

Regarding `COc1ccc(-c2c[nH]c3ccc([N+](=O)O)cc23)cc1` [Compound 40], the IC50 was more than 2 µM.

For the compound `COc1ccc(-n2cc(C(C)=O)c3cc(OC)ccc32)cc1` [Compound 42, 1-[5-methoxy-1-(4-methoxyphenyl)-1-H-indol-3-yl]-ethanone], the IC50 is more than 2 µM.

In the case of `CC(C)n1cc(C#N)c2cc3c(cc21)OCO3` [Compound 43], the IC50 is more than 2 µM.

Turning to `CCOC(=O)c1c(C)n(-c2ccc(OC)cc2)c2cc(OC(F)F)ccc12` [Compound 46], the IC50 was more than 2 µM.

Take `COc1ccc(-n2cc(C(=O)c3ccc(F)cc3)c3ccc(OC)cc32)cc1` [Compound 47]: the IC50 was more than 2 µM.

With `N#Cc1cn(C(F)F)c2cc(OC(F)F)ccc12` [Compound 50], the IC50 is more than 2 µM.

Regarding `CC(C)n1cc(C#N)c2cc3c(cc21)OCCO3` [Compound 52], the IC50 is more than 2 µM.

In the case of `CCn1cc(-c2ccno2)c2ccc(C(=O)OC)cc21` [Compound 60], the IC50 is more than 2 µM.

In the case of `CCn1cc(-c2ccn[nH]2)c2ccc(C(=O)OC)cc21` [Compound 61], the IC50 is more than 2 µM.

As to `CCOC(=O)c1cn(CC)c2cc3c(cc12)OCO3` [Compound 62], the IC50 is more than 2 µM.

Consider `CCn1c(-c2ccc(C(C)(C)C)cc2)c(C#N)c2ccc(OC)cc21` [Compound 63], for which the IC50 was more than 2 µM.

For `CCn1c(C#Cc2ccccc2)c(C#N)c2ccc(OC)cc21` [Compound 64], the IC50 is more than 2 µM.

As for `CCn1c(C#Cc2ccc(OC)cc2)c(C#N)c2ccc(OC)cc21` [Compound 65], the IC50 lay in the range of 0.5 to 2 µM.

With `CCn1c(C#Cc2cccc(OC)c2)c(C#N)c2ccc(OC)cc21` [Compound 66], the IC50 is more than 2 µM.

On to `CCn1c(C#Cc2ccc(C)cc2)c(C#N)c2ccc(OC)cc21` [Compound 68], for which the IC50 fell in the range of 0.5 to 2 µM.

As for `CCOc1ccc(-c2c(C#N)c3ccc(OC)cc3n2CC)cc1` [Compound 70], the IC50 is more than 2 µM.

As for `CCn1c(-c2ccc(C(=O)N(C)C)cc2)c(C#N)c2ccc(OC)cc21` [Compound 71], the IC50 was more than 2 µM.

For `CCn1c(-c2ccc(OC)c(F)c2)c(C#N)c2ccc(OC)cc21` [Compound 74], the IC50 was more than 2 µM.

As to `COc1ccc(-c2c(C#N)c3ccc(OC)cc3n2C)cc1` [Compound 76], the IC50 was more than 2 µM.

With `CCOc1ccc(-c2c(C#N)c3ccc(OC)cc3n2C)cc1` [Compound 77], the IC50 is more than 2 µM.

Regarding `CCn1cc(-c2nccs2)c2ccc(C(=O)OC)cc21` [Compound 78], the IC50 was more than 2 µM.

Take `CCn1c(-c2ccc(C(C)C)cc2)c(C#N)c2ccc(C(N)=O)cc21` [Compound 79]: the IC50 is more than 2 µM.

For `CCn1c(-c2ccc(NS(=O)(=O)CC)cc2)c(C#N)c2ccc(OC)cc21` [Compound 83], the IC50 is less than 0.5 µM.

In the case of `COc1ccc2c(C#N)c(-c3ccc(NS(C)(=O)=O)cc3)n(C3CCC3)c2c1` [Compound 87], the IC50 was less than 0.5 µM.

Regarding `COc1ccc(-n2cc(C#N)c3ccc(C(=O)NO)cc32)cc1` [Compound 89], the IC50 lay in the range of 0.5 to 2 µM.

For `COc1ccc(-n2cc(C#N)c3ccc(NC(=O)OC(C)(C)C)cc32)cc1` [Compound 90], the IC50 was more than 2 µM.

Take `COc1ccc(C#Cc2c(C#N)c3ccc(OC)cc3n2C)cc1` [Compound 92]: the IC50 is more than 2 µM.

Consider `COc1ccc2c(C#N)c(C#Cc3ccc(F)cc3)n(C)c2c1` [Compound 93], for which the IC50 was more than 2 µM.

As to `COc1ccc(-n2cc(C#N)c3ccc(NC(=O)NC(C)(C)C)cc32)cc1` [Compound 98], the IC50 is more than 2 µM.

Turning to `COc1ccc2c(C#N)c(-c3cccc(C)c3)n(C)c2c1` [Compound 100], the IC50 is more than 2 µM.

As to `COc1ccc(-n2cc(C#N)c3ccc(F)cc32)cc1` [Compound 102], the IC50 is more than 2 µM.

In the case of `COc1ccc(-n2cc(C#N)c3ccc(C)cc32)cc1` [Compound 103], the IC50 is more than 2 µM.

In the case of `COc1ccc(-n2cc(-c3nc(C(C)(C)C)cs3)c3ccc(C(N)=O)cc32)cc1` [Compound 104], the IC50 lay in the range of 0.5 to 2 µM.

For `COC(=O)c1ccc2c(-c3nc(-c4ccncc4)cs3)cn(-c3ccc(OC)cc3)c2c1` [Compound 105], the IC50 is more than 2 µM.

For the compound `COc1ccc(-n2cc(-c3nc(-c4ccc(Cl)c(Cl)c4)cs3)c3ccc(C(N)=O)cc32)cc1` [Compound 106], the IC50 is more than 2 µM.

Turning to `CCn1cc(C#N)c2cc(Br)ccc21` [Compound 108], the IC50 was more than 2 µM.

For `CCCn1cc(C#N)c2cc(Br)ccc21` [Compound 109], the IC50 is more than 2 µM.

Regarding `CCOC(=O)c1ccc(-c2c(C#N)c3ccc(OC)cc3n2CC)cc1` [Compound 110], the IC50 lay in the range of 0.5 to 2 µM.

As to `Cc1ccc2c(C#N)cn(-c3ccc4c(c3)OCO4)c2c1` [Compound 112], the IC50 was in the range of 0.5 to 2 µM.

In the case of `CCn1c(-c2ccc(C(=O)N3CCCC3)cc2)c(C#N)c2ccc(OC)cc21` [Compound 113], the IC50 is more than 2 µM.

As for `CCn1c(-c2ccc(C(=O)N3CCOCC3)cc2)c(C#N)c2ccc(OC)cc21` [Compound 114], the IC50 was more than 2 µM.

`N#Cc1c[nH]c2cc(Cl)ccc12` [Compound 115]: the IC50 is more than 2 µM.

Turning to `COc1ccc(-n2cc(C#N)c3ccccc32)cc1` [Compound 117], the IC50 is more than 2 µM.

Regarding `CCn1cc(C#N)c2ccc(Cl)cc21` [Compound 118], the IC50 was 0.5 to 2 µM.

Take `CCn1c(-c2ccc(NC(=O)OCc3ccccc3)cc2)c(C#N)c2ccc(OC)cc21` [Compound 122]: the IC50 was more than 2 µM.

Turning to `CCn1cc(C#N)c2ccc(C(F)(F)F)cc21` [Compound 123], the IC50 is more than 2 µM.

On to `Cc1ccc2c(C#N)c(C)n(-c3ccc4c(c3)OCO4)c2c1` [Compound 125], for which the IC50 fell in the range of 0.5 to 2 µM.

On to `CCn1cc(C#N)c2ccc(Br)cc21` [Compound 126], for which the IC50 is more than 2 µM.

As for `COc1ccc(-n2cc(C#N)c3ccc(Br)cc32)cc1` [Compound 127], the IC50 is more than 2 µM.

With `CCn1c(C#Cc2cccc3ccccc23)c(C#N)c2ccc(OC)cc21` [Compound 133], the IC50 fell in the range of 0.5 to 2 µM.

As to `CCn1c(C#Cc2ccccc2Br)c(C#N)c2ccc(OC)cc21` [Compound 136], the IC50 was 0.5 to 2 µM.

`CCn1c(C#Cc2ccc(OC)cc2C)c(C#N)c2ccc(OC)cc21` [Compound 137]: the IC50 was 0.5 to 2 µM.

In the case of `CCn1cc(C#N)c2cc(-c3cccs3)ccc21` [Compound 140], the IC50 is more than 2 µM.

With `CCn1cc(C#N)c2cc(-c3ccoc3)ccc21` [Compound 142], the IC50 is more than 2 µM.

As to `CCn1c(C#Cc2ccc(N3CCCCC3)cc2)c(C#N)c2ccc(OC)cc21` [Compound 143], the IC50 was more than 2 µM.

As to `CCn1c(C#Cc2cccc(Cl)c2)c(C#N)c2ccc(OC)cc21` [Compound 146], the IC50 lay in the range of 0.5 to 2 µM.

Take `CCn1c(C#Cc2ccc(N(C)C)cc2)c(C#N)c2ccc(OC)cc21` [Compound 147]: the IC50 was in the range of 0.5 to 2 µM.

As to `CCn1c(C#Cc2ccc(Cl)cc2)c(C#N)c2ccc(OC)cc21` [Compound 148], the IC50 lay in the range of 0.5 to 2 µM.

For `CCOc1ccc(C#Cc2c(C#N)c3ccc(OC)cc3n2CC)cc1` [Compound 149], the IC50 was 0.5 to 2 µM.

For `CCn1c(C#Cc2ccccc2F)c(C#N)c2ccc(OC)cc21` [Compound 150], the IC50 was in the range of 0.5 to 2 µM.

With `CCn1c(C#Cc2cccc(F)c2)c(C#N)c2ccc(OC)cc21` [Compound 151], the IC50 lay in the range of 0.5 to 2 µM.

For `CCn1c(C#Cc2ccc(NC(=O)C(C)C)cc2)c(C#N)c2ccc(OC)cc21` [Compound 152], the IC50 was more than 2 µM.

Turning to `CCn1c(C#Cc2ccc(OC)c(OC)c2)c(C#N)c2ccc(OC)cc21` [Compound 159], the IC50 lay within 0.5 to 2 µM.

Regarding `CCn1c(C#Cc2ccc(NC(=O)[C@@H]3CCCN3)cc2)c(C#N)c2ccc(OC)cc21` [Compound 162], the IC50 is more than 2 µM.

With `CCn1c(C#Cc2ccc(NC(=O)c3c[nH]cn3)cc2)c(C#N)c2ccc(OC)cc21` [Compound 163], the IC50 is 0.5 to 2 µM.

`CCC(=O)Nc1ccc(C#Cc2c(C#N)c3ccc(O)cc3n2CC)cc1` [Compound 164]: the IC50 fell in the range of 0.5 to 2 µM.
